Literature values as cited in patent US20220347165A1, “EFFERVESCENT ORAL COMPOSITION” (NICOVENTURES TRADING LIMITED, priority 2021, published 2022).

How the values were obtained:
[1] = when isolated; isomerizes to trans-bixin

Structure (SMILES): CC(/C=C/C=C(C)/C=C/C(=O)O)=C\C=C\C=C(C)\C=C\C=C(C)\C=C\C(=O)O (stereo in doubt) [norbixin, (2E,4E,6E,8E,10E,12E,14E,16E,18E)-4,8,13,17-tetramethylicosa-2,4,6,8,10,12,14,16,18-nonaenedioic acid]
- solubility in water: water soluble

Structure (SMILES): COC(=O)/C=C/C(C)=C\C=C\C(C)=C\C=C\C=C(C)\C=C\C=C(C)\C=C\C(=O)O [bixin, (2E,4E,6E,8E,10E,12E,14E,16Z,18E)-20-methoxy-4,8,13,17-tetramethyl-20-oxoicosa-2,4,6,8,10,12,14,16,18-nonaenoic acid]
- solubility in fats and alcohols (fats and alcohols): soluble in fats and alcohols
- solubility in water: insoluble in water
- chemical stability [1]: chemically unstable when isolated
